Reference: ChEMBL document CHEMBL4371076 (J Med Chem, 2019)

What was measured:
[1] = target: Sodium channel protein type 9 subunit alpha (Homo sapiens, UniProt Q15858); experiment: Inhibition of human Nav1.7 expressed in HEK293 cells after 600 secs at -60 mV holding potential by ion works barracuda population patch clamp method; format: cell-based
[2] = target: Sodium channel protein type 5 subunit alpha (Homo sapiens, UniProt Q14524); experiment: Inhibition of human Nav1.5 expressed in HEK293 cells after 600 secs at -50 mV holding potential by ion works barracuda population patch clamp method; format: cell-based
Chain of Sodium channel protein type 5 subunit alpha (Q14524 whole entry): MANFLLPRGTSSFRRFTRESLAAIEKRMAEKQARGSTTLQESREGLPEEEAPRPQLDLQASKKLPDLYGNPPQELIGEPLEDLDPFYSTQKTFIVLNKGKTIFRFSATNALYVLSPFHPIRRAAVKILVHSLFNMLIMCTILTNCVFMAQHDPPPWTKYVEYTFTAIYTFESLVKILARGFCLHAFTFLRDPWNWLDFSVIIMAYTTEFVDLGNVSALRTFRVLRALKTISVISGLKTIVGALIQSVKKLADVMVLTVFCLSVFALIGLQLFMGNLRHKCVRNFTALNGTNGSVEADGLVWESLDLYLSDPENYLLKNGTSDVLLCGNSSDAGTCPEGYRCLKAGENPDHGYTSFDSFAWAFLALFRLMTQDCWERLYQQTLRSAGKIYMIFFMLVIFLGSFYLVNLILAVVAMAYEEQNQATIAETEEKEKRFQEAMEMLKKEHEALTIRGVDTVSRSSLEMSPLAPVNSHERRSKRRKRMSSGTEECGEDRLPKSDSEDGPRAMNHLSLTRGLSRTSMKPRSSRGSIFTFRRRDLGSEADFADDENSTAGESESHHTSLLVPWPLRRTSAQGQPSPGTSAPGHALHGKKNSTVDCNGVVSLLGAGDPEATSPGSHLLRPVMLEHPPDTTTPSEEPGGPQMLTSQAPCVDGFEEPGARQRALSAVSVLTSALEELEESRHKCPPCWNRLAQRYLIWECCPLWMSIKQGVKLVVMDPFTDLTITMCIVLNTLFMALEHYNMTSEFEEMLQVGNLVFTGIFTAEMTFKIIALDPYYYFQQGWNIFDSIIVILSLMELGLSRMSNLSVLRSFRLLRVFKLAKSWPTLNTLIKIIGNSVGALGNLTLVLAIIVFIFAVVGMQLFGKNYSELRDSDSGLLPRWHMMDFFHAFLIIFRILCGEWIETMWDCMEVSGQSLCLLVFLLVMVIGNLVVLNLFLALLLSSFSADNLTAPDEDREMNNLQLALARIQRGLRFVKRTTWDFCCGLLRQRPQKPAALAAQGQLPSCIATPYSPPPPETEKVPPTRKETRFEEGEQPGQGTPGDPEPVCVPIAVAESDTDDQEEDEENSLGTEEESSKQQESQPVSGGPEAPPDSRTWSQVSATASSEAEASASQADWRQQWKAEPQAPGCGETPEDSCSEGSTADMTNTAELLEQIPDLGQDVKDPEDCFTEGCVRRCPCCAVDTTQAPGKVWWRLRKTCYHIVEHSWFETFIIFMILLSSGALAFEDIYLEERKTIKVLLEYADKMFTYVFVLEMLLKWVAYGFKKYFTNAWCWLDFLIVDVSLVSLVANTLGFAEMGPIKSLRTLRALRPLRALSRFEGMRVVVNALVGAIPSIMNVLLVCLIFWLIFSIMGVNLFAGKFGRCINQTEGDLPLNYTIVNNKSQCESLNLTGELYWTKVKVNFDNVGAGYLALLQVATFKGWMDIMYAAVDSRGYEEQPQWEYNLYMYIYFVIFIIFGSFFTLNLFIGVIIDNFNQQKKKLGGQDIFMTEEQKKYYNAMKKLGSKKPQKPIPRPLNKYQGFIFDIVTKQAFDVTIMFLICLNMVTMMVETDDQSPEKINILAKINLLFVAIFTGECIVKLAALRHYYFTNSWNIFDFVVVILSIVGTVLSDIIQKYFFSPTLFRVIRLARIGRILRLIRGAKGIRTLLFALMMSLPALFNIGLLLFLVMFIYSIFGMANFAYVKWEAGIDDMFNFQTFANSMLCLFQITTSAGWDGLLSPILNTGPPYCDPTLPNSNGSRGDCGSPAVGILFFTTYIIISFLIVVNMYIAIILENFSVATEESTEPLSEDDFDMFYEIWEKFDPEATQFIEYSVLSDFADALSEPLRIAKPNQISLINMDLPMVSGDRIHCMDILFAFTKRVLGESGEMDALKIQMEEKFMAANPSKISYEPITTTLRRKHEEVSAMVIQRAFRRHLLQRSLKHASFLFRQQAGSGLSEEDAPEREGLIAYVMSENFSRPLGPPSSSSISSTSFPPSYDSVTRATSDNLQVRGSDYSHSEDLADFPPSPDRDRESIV

Chain of Sodium channel protein type 9 subunit alpha (Q15858 whole entry): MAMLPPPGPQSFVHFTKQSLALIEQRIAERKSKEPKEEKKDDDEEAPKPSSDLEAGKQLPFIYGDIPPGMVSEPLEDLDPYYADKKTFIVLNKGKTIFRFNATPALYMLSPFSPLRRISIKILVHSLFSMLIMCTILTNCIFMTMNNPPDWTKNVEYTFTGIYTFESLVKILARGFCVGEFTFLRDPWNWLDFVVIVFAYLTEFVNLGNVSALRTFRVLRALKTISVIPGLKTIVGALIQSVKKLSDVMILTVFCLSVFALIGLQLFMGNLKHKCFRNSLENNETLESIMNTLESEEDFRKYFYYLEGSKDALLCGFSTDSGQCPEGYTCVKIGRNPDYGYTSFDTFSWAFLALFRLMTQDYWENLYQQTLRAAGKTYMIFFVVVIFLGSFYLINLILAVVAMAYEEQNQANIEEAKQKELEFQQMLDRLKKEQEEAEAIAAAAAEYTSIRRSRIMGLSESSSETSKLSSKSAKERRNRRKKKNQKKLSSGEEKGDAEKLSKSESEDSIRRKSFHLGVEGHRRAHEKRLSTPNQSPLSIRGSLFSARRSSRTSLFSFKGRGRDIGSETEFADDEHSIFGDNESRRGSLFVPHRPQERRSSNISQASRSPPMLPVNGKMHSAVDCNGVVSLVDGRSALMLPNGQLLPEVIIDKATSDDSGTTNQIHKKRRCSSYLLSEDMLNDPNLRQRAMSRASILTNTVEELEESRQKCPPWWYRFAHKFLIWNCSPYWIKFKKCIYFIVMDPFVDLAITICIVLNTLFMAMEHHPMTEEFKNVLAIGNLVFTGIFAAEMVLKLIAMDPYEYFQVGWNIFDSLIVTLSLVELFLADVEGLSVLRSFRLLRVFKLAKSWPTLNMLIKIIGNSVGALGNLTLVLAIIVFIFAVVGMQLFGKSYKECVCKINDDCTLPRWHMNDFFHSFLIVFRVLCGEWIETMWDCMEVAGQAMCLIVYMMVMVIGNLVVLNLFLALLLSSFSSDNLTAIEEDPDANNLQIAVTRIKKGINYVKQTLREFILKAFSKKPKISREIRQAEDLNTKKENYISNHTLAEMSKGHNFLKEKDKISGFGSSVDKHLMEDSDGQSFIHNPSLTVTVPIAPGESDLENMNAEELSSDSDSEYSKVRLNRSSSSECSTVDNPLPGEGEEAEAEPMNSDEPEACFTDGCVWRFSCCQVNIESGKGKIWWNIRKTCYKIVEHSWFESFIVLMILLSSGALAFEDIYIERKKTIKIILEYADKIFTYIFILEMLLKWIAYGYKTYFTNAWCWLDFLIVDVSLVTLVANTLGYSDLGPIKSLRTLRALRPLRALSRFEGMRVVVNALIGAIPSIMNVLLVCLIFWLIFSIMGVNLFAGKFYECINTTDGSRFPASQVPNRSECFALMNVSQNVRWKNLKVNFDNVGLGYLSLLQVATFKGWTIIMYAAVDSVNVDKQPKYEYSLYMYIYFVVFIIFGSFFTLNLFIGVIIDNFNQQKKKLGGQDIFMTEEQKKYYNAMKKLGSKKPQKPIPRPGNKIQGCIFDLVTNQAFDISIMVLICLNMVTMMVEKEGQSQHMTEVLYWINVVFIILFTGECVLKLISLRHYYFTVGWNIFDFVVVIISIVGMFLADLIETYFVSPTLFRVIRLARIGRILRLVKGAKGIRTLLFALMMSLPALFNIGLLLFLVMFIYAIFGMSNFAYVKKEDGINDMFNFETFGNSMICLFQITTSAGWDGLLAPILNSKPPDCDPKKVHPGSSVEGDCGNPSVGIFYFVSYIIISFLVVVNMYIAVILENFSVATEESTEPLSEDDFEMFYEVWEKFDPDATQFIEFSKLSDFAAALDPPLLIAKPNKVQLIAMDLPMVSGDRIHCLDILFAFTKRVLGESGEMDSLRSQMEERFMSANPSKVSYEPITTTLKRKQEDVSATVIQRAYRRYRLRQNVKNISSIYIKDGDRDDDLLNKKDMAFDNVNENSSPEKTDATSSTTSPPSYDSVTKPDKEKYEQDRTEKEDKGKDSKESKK

Row | Structure (SMILES) | IC50 [1] [nM] | IC50 [2] [nM]
1 | CC(C)COc1ncc(-c2cn(C)c3cc(C(=O)NS(=O)(=O)C4CC4)cnc23)cc1Cl | 2000 | 
2 | CN(C)S(=O)(=O)NC(=O)c1ccc2c(-c3ccc(C(F)(F)F)cc3)cn(C)c2c1 | 1700 | 19000
3 | Cn1cc(-c2ccc(C(F)F)cc2)c2ccc(C(=O)NS(C)(=O)=O)cc21 |  | > 30000
4 | CC(C)COc1ccc(-c2nn(C)c3cc(C(=O)NS(C)(=O)=O)c(F)cc23)cn1 | 170 | > 30000
5 | Cn1cc(-c2ccc(C(F)F)cc2)c2cc(F)c(C(=O)NS(C)(=O)=O)cc21 |  | > 30000
6 | CC(C)COc1ccc(-c2cn(C)c3cc(C(=O)NS(C)(=O)=O)ccc23)cc1 | 530 | 18000
7 | CC(C)COc1ccc(-c2nn(C)c3cc(C(=O)NS(C)(=O)=O)ccc23)cn1 | 314 | > 30000
8 | CC(C)COc1ncc(-c2cn(C)c3nc(C(=O)NS(C)(=O)=O)ccc23)cc1Cl | 1400 | 
9 | COc1cc(-c2cn(C)c3cc(C(=O)NS(=O)(=O)C4CC4)ccc23)cnc1OCC(C)C | 85 | > 30000
10 | Cn1cc(-c2ccc(C(F)F)cc2)c2ccc(C(=O)NS(=O)(=O)C3CC3)cc21 |  | > 30000
11 | Cn1cc(-c2ccc(C(F)(F)F)cc2)c2ccc(C(=O)NS(=O)(=O)c3ccc(F)c(F)c3)cc21 | > 3000 | 
12 | Cn1cc(-c2cccc(F)c2F)c2ccc(C(=O)NS(C)(=O)=O)cc21 |  | > 30000
13 | CC(C)COc1ncc(-c2n[nH]c3cc(C(=O)NS(C)(=O)=O)ccc23)cc1Cl | 280 | 
14 | Cn1cc(-c2ccc(C(F)(F)F)cc2)c2ccc(C(=O)NS(C)(=O)=O)nc21 | 3020 | 
15 | Cn1nc(-c2ccc(C(F)(F)F)cc2)c2cc(F)c(C(=O)NS(C)(=O)=O)cc21 | 52 | > 30000
16 | Cn1cc(-c2cccnc2)c2ccc(C(=O)NS(C)(=O)=O)cc21 | > 3000 | 
17 | Cn1cc(-c2ccc(C(F)(F)F)cc2)c2ccc(C(=O)NS(=O)(=O)C3CC3)nc21 | 642 | 
18 | CC(C)COc1ncc(-c2cn(C)c3cc(C(=O)NS(C)(=O)=O)cnc23)cc1Cl | 7820 | 

Row | Structure (SMILES) | IC50 [1] [nM] | IC50 [2] [nM]
19 | Cn1cc(-c2cnc(OCC3CC3)c(Cl)c2)c2ccc(C(=O)NS(C)(=O)=O)cc21 | 123 | 
20 | Cc1ccc(-c2cn(C)c3cc(C(=O)NS(C)(=O)=O)ccc23)cc1 |  | > 30000
21 | COc1cc(-c2cn(C)c3cc(C(=O)NS(C)(=O)=O)ccc23)cnc1OCC(C)C | 510 | > 30000
22 | CC(C)COc1ccc(-c2cn(C)c3cc(C(=O)NS(C)(=O)=O)ccc23)cn1 | 164 | > 30000
23 | Cn1cc(-c2ccccc2)c2ccc(C(=O)NS(C)(=O)=O)cc21 |  | > 30000
24 | CCc1cccc(-c2cn(C)c3cc(C(=O)NS(C)(=O)=O)ccc23)c1 |  | > 30000
25 | CC(C)COc1ncc(-c2cn(C(C)C)c3cc(C(=O)NS(C)(=O)=O)ccc23)cc1Cl |  | 1700
26 | Cc1cccc(-c2cn(C)c3cc(C(=O)NS(C)(=O)=O)ccc23)c1 |  | > 30000
27 | Cn1cc(-c2cnc(OCC(F)F)c(Cl)c2)c2ccc(C(=O)NS(C)(=O)=O)cc21 | 850 | > 30000
28 | Cn1cc(-c2ccc(C(F)(F)F)cc2)c2cnc(C(=O)NS(C)(=O)=O)cc21 | > 30000 | 
29 | Cn1cc(-c2cnc(OCC(F)(F)F)c(Cl)c2)c2ccc(C(=O)NS(C)(=O)=O)cc21 | 63 | 12000
30 | Cn1cc(-c2cnc(OCC(C)(C)O)c(Cl)c2)c2ccc(C(=O)NS(C)(=O)=O)cc21 | > 30000 | > 30000
31 | Cn1cc(-c2ccc(OC(F)(F)F)cc2)c2ccc(C(=O)NS(C)(=O)=O)cc21 | 80 | 16000
32 | CC(C)COc1ncc(-c2c3ccc(C(=O)NS(=O)(=O)C4CC4)cc3nn2C)cc1Cl | 190 | 
33 | CC(C)COc1ncc(-c2nn(C)c3cc(C(=O)NS(=O)(=O)C4CC4)ccc23)cc1Cl | 104 | 5900
34 | Cn1nc(-c2ccc(C(F)(F)F)cc2)c2ccc(C(=O)NS(C)(=O)=O)cc21 | 194 | > 30000
35 | CCc1ccc(-c2cn(C)c3cc(C(=O)NS(C)(=O)=O)ccc23)cc1 |  | > 30000
